This note sets out measurements from patent publication US20240368131A1, “OXOINDOLINYL AMIDE DERIVATIVES FOR INHIBITING NLRP3 AND USES THEREOF” (VENTUS THERAPEUTICS U.S. INC., priority 2022, published 2024).

Each structure is given as a SMILES string.

human NLRP3, sequence (Q96P20 whole entry): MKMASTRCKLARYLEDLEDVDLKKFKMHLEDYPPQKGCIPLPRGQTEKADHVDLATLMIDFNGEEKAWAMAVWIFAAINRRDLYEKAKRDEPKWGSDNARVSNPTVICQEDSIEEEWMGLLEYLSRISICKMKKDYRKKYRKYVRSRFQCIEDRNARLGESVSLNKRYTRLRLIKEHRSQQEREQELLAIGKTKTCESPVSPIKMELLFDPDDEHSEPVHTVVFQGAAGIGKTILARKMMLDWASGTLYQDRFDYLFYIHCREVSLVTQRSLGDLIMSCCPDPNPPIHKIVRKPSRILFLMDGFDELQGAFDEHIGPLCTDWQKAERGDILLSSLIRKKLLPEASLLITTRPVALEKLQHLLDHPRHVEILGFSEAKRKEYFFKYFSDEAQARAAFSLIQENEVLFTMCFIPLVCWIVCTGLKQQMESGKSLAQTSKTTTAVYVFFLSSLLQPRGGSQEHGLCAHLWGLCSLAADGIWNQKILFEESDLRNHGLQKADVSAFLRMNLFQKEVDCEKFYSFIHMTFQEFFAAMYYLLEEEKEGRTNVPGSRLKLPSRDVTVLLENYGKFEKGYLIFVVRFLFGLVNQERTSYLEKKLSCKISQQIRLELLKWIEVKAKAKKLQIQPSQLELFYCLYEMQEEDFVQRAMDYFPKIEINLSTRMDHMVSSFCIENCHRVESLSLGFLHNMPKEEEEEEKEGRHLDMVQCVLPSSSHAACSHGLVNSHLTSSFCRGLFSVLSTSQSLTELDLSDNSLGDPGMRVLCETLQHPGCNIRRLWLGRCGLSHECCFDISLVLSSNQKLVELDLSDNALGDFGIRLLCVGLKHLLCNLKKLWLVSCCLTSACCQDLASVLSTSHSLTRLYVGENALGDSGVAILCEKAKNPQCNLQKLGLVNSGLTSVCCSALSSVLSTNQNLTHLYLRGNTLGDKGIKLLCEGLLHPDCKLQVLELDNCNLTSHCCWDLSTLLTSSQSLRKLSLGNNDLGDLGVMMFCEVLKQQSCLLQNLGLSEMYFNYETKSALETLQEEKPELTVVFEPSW

The first assay addresses human NLRP3 (Homo sapiens, UniProt Q96P20). Put plainly: Human PBMC NLRP3 Assay (IL-1β release). The class given is cell-based. More on the design: Human PBMCs (Normal): iXCells Cat #10HU-003; host or cells: human PBMCs (normal donors), LPS-primed, nigericin-stimulated. The conditions noted are these: human PBMCs, LPS priming 4 h, nigericin stimulation 1 h; class symbols. The procedure:
Reagents: Human PBMCs (Normal): iXCells Cat #10HU-003; RPMI 1640 medium (ATCC modification): ThermoFisher Cat #A1049101 (Complete Media: 10% FBS, 1% Pen/Strep; Assay Media: 1% Pen/Strep; 75 cm^2 cell culture flask: Corning Cat #430641U; 96-well cell culture plates: VWR Cat #10062-900; LPS (E. coli 026:B6): Sigma Cat #L2654, stock 5 mg/mL in PBS; Nigericin sodium salt: Sigma Cat #N7143, stock 5 mg/mL (6.7 mM) in ethanol.
Cryopreserved PBMCs (10×10^6 cells/vial) were rapidly thawed in a 37° C. water bath for 2 min and transferred in 10 mL Complete Media. Cells were then centrifuged at 1200 RPM for 5 min, resuspended in 40 mL of Complete Media, transferred in a 75 cm^2 cell culture flask and incubated overnight at 37° C. with 5% CO2. The next day, PBMCs were centrifuged, resuspended in 30 mL Assay Media (˜3.3×10^5 cells/mL) and distributed at 100 μL/well in a 96-well cell culture plate. 50 μl of Assay Media containing 300 ng/ml of LPS was then added to each well except for the untreated control wells (50 μl Assay Media without LPS). Cells were then primed with LPS for 4 h at 37° C. with 5% CO2. A concentration response curve (CRC) was prepared of 500× test compound in 100% dimethyl sulfoxide (DMSO). The CRC was then diluted 1:25 in Assay Media and then further diluted 1:5 in Assay Media resulting in a final 4× CRC in 0.8% DMSO/Assay Media. 50 μL/well of 4× test compound CRC or vehicle (0.8% DMSO/Assay Media) was then transferred into each well and subsequently incubated for 30 min at 37° C. with 5% CO2. Cells were stimulated by adding 4 μL of 500 μM Nigericin, for 1 h at 37° C. with 5% CO2 Plates were then centrifuged at 1200 RPM for 5 min and 100 μl of the media was transferred to a clean 96-well storage plate and stored at −80° C. until analyzed. Cytokine measurements were performed using the mesoscale platform. Compounds were added 30 minutes before priming the cells with LPS when TNFα was required to be quantified in the cytokine panel to confirm selectivity.
Human PBMC NLRP3 Assay: A represents an IC50 value <0.3 μM; B represents an IC50 value ≥0.3 μM and <0.5 μM; C represents an IC50 value ≥0.5 μM and <1.0 μM; D represents an IC50 value >1.0 μM and <10 μM; E represents an IC50 value >10 μM.
`C[C@@H](CNC(=O)CN1C(=O)C(C)(C)c2cc(Br)cc(O)c21)CC(=O)O` (single isomer, unassigned) [42A*]: the IC50 (in general, the concentration needed to halve the response being measured) is below 0.3 µM.

In turn, `C[C@H](CNC(=O)CN1C(=O)C(C)(C)c2cc(Br)cc(O)c21)CC(=O)O` (single isomer, unassigned) [42B*] registered an IC50 below 0.3 µM.

Turning to `CC1(C)C(=O)N(CC(=O)N[C@@H]2CCC[C@@H]2C(=O)O)c2ccc(Br)cc21` (single isomer, unassigned) [52A*], the IC50 is above 10 µM.

The compound `O=C(O)CCCNC(=O)CN1C(=O)C2(CCCC2)c2cc(Br)ccc21` [Compound 5, 4-(2-(5′-bromo-2′-oxospiro[cyclopentane-1,3′-indolin]-1′-yl)acetamido)butanoic acid] returned an IC50 above 10 µM.

With `O=C(O)CCCNC(=O)CN1C(=O)C2(CC2)c2cc(Br)ccc21` [Compound 6, 4-(2-(5′-bromo-2′-oxospiro[cyclopropane-1,3′-indolin]-1′-yl)acetamido)butanoic acid], the IC50 was 0.5 to 1 µM.

Compound `Cc1ccc2c(c1)C(C)(C)C(=O)N2CC(=O)NCCCC(=O)O` [Compound 7, 4-(2-(3,3,5-trimethyl-2-oxoindolin-1-yl)acetamido)butanoic acid] came in with an IC50 of 1 to 10 µM.

For the compound `CC(C)(CCC(=O)O)NC(=O)CN1C(=O)C(C)(C)c2cc(C(F)(F)F)ccc21` [Compound 8, 4-(2-(3,3-dimethyl-2-oxo-5-(trifluoromethyl)indolin-1-yl)acetamido)-4-methylpentanoic acid], the IC50 was in the range of 0.5 to 1 µM.

`CC(C)(CCC(=O)O)NC(=O)CN1C(=O)C(C)(C)c2cc(C3CC3)ccc21` [Compound 9, 4-(2-(5-cyclopropyl-3,3-dimethyl-2-oxoindolin-1-yl)acetamido)-4-methylpentanoic acid] displayed an IC50 of 0.5 to 1 µM.

`CC(C)c1ccc2c(c1)C(C)(C)C(=O)N2CC(=O)NC(C)(C)CCC(=O)O` [Compound 10, 4-(2-(5-isopropyl-3,3-dimethyl-2-oxoindolin-1-yl)acetamido)-4-methylpentanoic acid] had an IC50 of 0.3 to 0.5 µM.

`CC(C)(CNC(=O)CN1C(=O)C(C)(C)c2cc(Br)ccc21)CC(=O)O` [Compound 13, 4-(2-(5-bromo-3,3-dimethyl-2-oxoindolin-1-yl)acetamido)-3,3-dimethylbutanoic acid] yielded a half-maximal inhibitory concentration (IC50) below 0.3 µM.

In turn, `CC(C)(CCNC(=O)CN1C(=O)C(C)(C)c2cc(Br)ccc21)C(=O)O` [Compound 14, 4-(2-(5-bromo-3,3-dimethyl-2-oxoindolin-1-yl)acetamido)-2,2-dimethylbutanoic acid] showed an IC50 of 1 to 10 µM.

Compound `CC1(C)C(=O)N(C2(C(=O)NCCCC(=O)O)CC2)c2ccc(Br)cc21` [Compound 15, 4-(1-(5-bromo-3,3-dimethyl-2-oxoindolin-1-yl)cyclopropane-1-carboxamido)butanoic acid] registered an IC50 above 10 µM.

Take `CC1(C)C(=O)N(CC(=O)NCCCC(=O)O)c2cc(F)c(Br)cc21` [Compound 20, 4-(2-(5-bromo-6-fluoro-3,3-dimethyl-2-oxoindolin-1-yl)acetamido)butanoic acid]: the IC50 fell in the range of 1 to 10 µM.

For the compound `CC1(C)C(=O)N(CC(=O)NCCCC(=O)O)c2ccc(C3CCCC3)cc21` [Compound 25, 4-(2-(5-cyclopentyl-3,3-dimethyl-2-oxoindolin-1-yl)acetamido)butanoic acid], the IC50 is above 10 µM.

For the compound `COc1cc(Br)cc2c1N(CC(=O)NCCCC(=O)O)C(=O)C2(C)C` [Compound 27, 4-(2-(5-bromo-7-methoxy-3,3-dimethyl-2-oxoindolin-1-yl)acetamido)butanoic acid], the IC50 was above 10 µM.

On to `CC1(C)C(=O)N(CC(=O)NCCCC(=O)O)c2cc(O)c(Br)cc21` [Compound 36, 4-(2-(5-bromo-6-hydroxy-3,3-dimethyl-2-oxoindolin-1-yl)acetamido)butanoic acid], for which the IC50 was above 10 µM.

The compound `C[C@H](CCC(=O)O)NC(=O)CN1C(=O)C(C)(C)c2cc(Br)cc(O)c21` [Compound 41A, (R)-4-(2-(5-bromo-7-hydroxy-3,3-dimethyl-2-oxoindolin-1-yl)acetamido)pentanoic acid] displayed an IC50 below 0.3 µM.

In turn, `CC1(C)C(=O)N(CC(=O)NC2(CCC(=O)O)CC2)c2c(O)cc(Br)cc21` [Compound 44, 3-(1-(2-(5-bromo-7-hydroxy-3,3-dimethyl-2-oxoindolin-1-yl)acetamido)cyclopropyl)propanoic acid] yielded an IC50 below 0.3 µM.

Compound `CC1(C)C(=O)N(CC(=O)NCc2ccccc2C(=O)O)c2ccc(Br)cc21` [Compound 49, 2-((2-(5-bromo-3,3-dimethyl-2-oxoindolin-1-yl)acetamido)methyl)benzoic acid] came in with an IC50 above 10 µM.

With `CC1(C)C(=O)N(CC(=O)NCCCC(=O)O)c2c(C(F)(F)F)cc(Br)cc21` [Compound 50, 4-(2-(5-bromo-3,3-dimethyl-2-oxo-7-(trifluoromethyl)indolin-1-yl)acetamido)butanoic acid], the 50% inhibitory concentration (IC50) is above 10 µM.

Consider `O=C(O)CCCNC(=O)CN1C(=O)C(F)(F)c2cc(Br)ccc21` [Compound 51, 4-(2-(5-bromo-3,3-difluoro-2-oxoindolin-1-yl)acetamido)butanoic acid], for which the IC50 is 0.3 to 0.5 µM.

Staying with this assay, now noted: human PBMCs, LPS priming, nigericin stimulation; numeric values of Tables C1-C4.
Consider `O=C(O)CCCNC(=O)Cn1ccc2ccccc21` [COMPARATIVE EXAMPLE 1, 4-(2-(1H-indol-1-yl)acetamido)butanoic acid, reference compound], for which the half-inhibitory concentration (IC50) was above 100 µM.

As for `O=C(O)CCCNC(=O)Cn1ccc2cc(Br)ccc21` [COMPARATIVE EXAMPLE 2, 4-(2-(5-bromo-1H-indol-1-yl)acetamido)butanoic acid, reference compound], the half-inhibitory concentration (IC50) turned out to be 7.2 µM.

Turning to `O=C(O)CCCNC(=O)CN1C(=O)Cc2cc(Br)ccc21` [COMPARATIVE EXAMPLE 3, 4-(2-(5-bromo-2-oxoindolin-1-yl)acetamido)butanoic acid, reference compound], the IC50 was 47 µM.

`O=C(O)CCCNC(=O)CN1C(=O)C(=O)c2cc(Br)ccc21` [COMPARATIVE EXAMPLE 4, 4-(2-(5-bromo-2,3-dioxoindolin-1-yl)acetamido)butanoic acid, reference compound] gave an IC50 above 100 µM.

The compound `O=C(O)CCNC(=O)Cn1ccc2cc(Br)ccc21` [COMPARATIVE EXAMPLE 5, 3-(2-(5-bromo-1H-indol-1-yl)acetamido)propanoic acid, reference compound] returned an IC50 above 100 µM.

Compound `CC1(C)C(=O)N(CC(=O)NCCCc2nnc[nH]2)c2c(F)cc(C3CC3)c(F)c21` [COMPARATIVE EXAMPLE 6, N-(3-(4H-1,2,4-triazol-3-yl)propyl)-2-(5-cyclopropyl-4,7-difluoro-3,3-dimethyl-2-oxoindolin-1-yl)acetamide, reference compound] yielded an IC50 of 0.941 µM.

With `CC1(C)C(=O)N(CC(=O)NCCCc2cn[nH]n2)c2c(F)cc(C3CC3)c(F)c21` [COMPARATIVE EXAMPLE 7, N-(3-(2H-1,2,3-triazol-4-yl)propyl)-2-(5-cyclopropyl-4,7-difluoro-3,3-dimethyl-2-oxoindolin-1-yl)acetamide, reference compound], the IC50 came to 0.676 µM.

Turning to `O=C(O)CCCNC(=O)CN1C(=O)C2(CC2)c2cc(Br)ccc21` [Compound 6, 4-(2-(5′-bromo-2′-oxospiro[cyclopropane-1,3′-indolin]-1′-yl)acetamido)butanoic acid], the IC50 came out at 0.57 µM.

Regarding `CC(C)(CCC(=O)O)NC(=O)CN1C(=O)C(C)(C)c2cc(C(F)(F)F)ccc21` [Compound 8, 4-(2-(3,3-dimethyl-2-oxo-5-(trifluoromethyl)indolin-1-yl)acetamido)-4-methylpentanoic acid], the IC50 turned out to be 0.69 µM.

Compound `CC(C)(CCC(=O)O)NC(=O)CN1C(=O)C(C)(C)c2cc(C3CC3)ccc21` [Compound 9, 4-(2-(5-cyclopropyl-3,3-dimethyl-2-oxoindolin-1-yl)acetamido)-4-methylpentanoic acid] had an IC50 of 0.67 µM.

In the case of `CC(C)(CNC(=O)CN1C(=O)C(C)(C)c2cc(Br)ccc21)CC(=O)O` [Compound 13, 4-(2-(5-bromo-3,3-dimethyl-2-oxoindolin-1-yl)acetamido)-3,3-dimethylbutanoic acid], the IC50 turned out to be 0.11 µM.

With `O=C(O)CCCNC(=O)CN1C(=O)C(F)(F)c2cc(Br)ccc21` [Compound 51, 4-(2-(5-bromo-3,3-difluoro-2-oxoindolin-1-yl)acetamido)butanoic acid], the IC50 came out at 0.41 µM.
